Results taken from US20220380383A1, “NEUROPROTECTIVE PDI MODULATING SMALL MOLECULES AND METHODS OF USE THEREOF” (THE TRUSTEES OF COLUMBIA UNIVERSITY IN THE CITY OF NEW YORK, priority 2018, published 2022).
≈ marks a conversion by molar mass, not a printed value. Read-outs that look alike come from different tables or passages of the source.

Assays:
[1] = target: T1, human catalytic PDI A1 a domain (PDIa) (Homo sapiens, UniProt P07237); assay: Isothermal titration calorimetry (ITC) binding to PDIa
T1 construct: made in house; host or cells: Escherichia coli BL21-Gold (DE3)
Experimental: All ITC experiments were carried out at 25° C. on MicoCal Auto-ITC200 system (GE Healthcare). […] ITC titration experiments were carried out at 25° C. with 19 injections, 2 μl per injection, and 180 seconds between each injection. The reference cell power was set to 5 μcal/sec. A control experiment was performed for each compound, where each compound was titrated into buffer to account for heat released due to dilution. This background was subtracted from test data before a final dissociation constant was obtained. […] Gibbs free energy, ΔG, was calculated from equation ΔG=ΔH-TΔS. All other parameters, Ka, n, ΔH, ΔS, were determined directly from the titration data.
LOC14 analogs were designed and synthesized as described in the synthetic schemes. The analogs were evaluated for their binding to PDIa using isothermal titration calorimetry (ITC) (results of certain compounds are shown in FIGS. 1A-1E). Next, the analogs were tested for their ability to rescue PC12 cells from mHTT^Q103 induced cell death in a dose-dependent manner (results of certain compounds are shown in FIG. 2).

PC12 mHTTQ103 cells = assay: Rescue of PC12 cells from mHTTQ103-induced cell death; type: cell-based, rat; details: for EC50: Rattus norvegicus
PDI = PDI (Homo sapiens, UniProt P07237); assay: Enzymatic assay for inhibition of PDI using insulin as substrate; type: biochemical
[2] = Solubility (stock solvent)
physchem = details: organic solvent or mixture
[3] = tested on: uninduced PC12 cells not expressing mHTTQ103; assay: General cell toxicity in PC12 cell culture assay; type: cell-based
Experimental: Neuroprotection was assessed by each compound's ability to rescue cells from mutant-huntingtin-induced cell death (“Ind Q103” cells; blue). General cell toxicity of each compound was assessed in uninduced cells not expressing mutant-huntingtin protein (“Unind Q103” cells; red). NMP, DMSO, LOC14 in NMP and LOC14 in DMSO were used as controls.
Data from cells induced to express mHTT^Q103 (blue) and cells not expressing mHTT^Q103 (red) are plotted as mean percent of DMSO-treated uninduced cells±SD with n=3.
The follow-up testing of primary screen hits was performed in a similar way. Fresh powder stocks of primary hits were re-ordered from vendors, dissolved in DMSO and tested in a two-fold serial dilution across 10 wells in both tebufenozide-induced and uninduced PC12 mHTT^Q103 cells. Dose-response curves were plotted as mean±SD and fit to either four-parameter sigmoidal (for uninduced cells) or bell-shaped (induced) function using Prism (GraphPad Software).

[4] = rescue from mHTTQ103 induced cell death
[5] = N/A = not active, read-out: ITC KD
[6] = PC-12, Tables 5-13, PC12 cells, read-out: EC50
[7] = PC-12, rescue from mHTTQ103 induced cell death, read-out: PC12 cells EC50
[8] = Tables 5-13, NA = not active, read-out: Kd
[9] = FIG. 1, PDI A1a titrated into compound in 0.8% NMP, read-out: Kd1

T1 sequence (P07237 18-134): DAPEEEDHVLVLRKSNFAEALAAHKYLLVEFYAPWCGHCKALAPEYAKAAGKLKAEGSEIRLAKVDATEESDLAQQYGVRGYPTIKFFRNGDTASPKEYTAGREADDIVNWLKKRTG
Chain of PDI (P07237 18-508): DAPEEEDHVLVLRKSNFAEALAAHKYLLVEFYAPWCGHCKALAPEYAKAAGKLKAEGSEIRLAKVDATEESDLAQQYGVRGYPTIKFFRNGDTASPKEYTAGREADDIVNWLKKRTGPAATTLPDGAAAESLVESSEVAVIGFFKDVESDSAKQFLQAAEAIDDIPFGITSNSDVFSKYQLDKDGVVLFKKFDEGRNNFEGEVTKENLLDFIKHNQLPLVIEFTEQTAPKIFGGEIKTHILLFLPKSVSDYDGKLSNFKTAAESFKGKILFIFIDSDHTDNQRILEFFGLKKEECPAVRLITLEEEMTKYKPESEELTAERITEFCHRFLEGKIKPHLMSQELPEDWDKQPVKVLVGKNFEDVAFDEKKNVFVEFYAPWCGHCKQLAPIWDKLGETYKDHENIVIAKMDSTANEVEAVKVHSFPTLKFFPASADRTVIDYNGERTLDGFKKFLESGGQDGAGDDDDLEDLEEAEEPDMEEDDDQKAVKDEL

SMILES | Max Viability (%) (PC12 mHTTQ103 cells; Tables 5-13, PC12 cells) | PC12 cells Max % Viability (PC12 mHTTQ103 cells; [4]) [%] | Kd [1, 5] [nM] | EC50 (PC12 mHTTQ103 cells; [6]) [nM] | EC50 (PC12 mHTTQ103 cells; [7]) [nM] | Solubility (physchem) [mM] | Kd [1, 8] [nM] | Solubility [2] [mM in DMSO] | Solubility (physchem; NMP (N-Methyl-2-Pyrrolidine)) [mM] | Solubility (physchem; NMP) [mM] | other results
O=c1c2ccccc2sn1-c1ccccc1 [LC-24] | 31 | 30.83 | – | – | – | – | – | – | – | – | Kd ([1]; Tables 6, 11, 12, read-out: Kd (nM), first value of two-site binding): 8 nM; Kd ([1]; Tables 6, 11, 12, read-out: Kd (nM), second value of two-site binding): 1140 nM; Kd ([1]; read-out: KD2): 1140 nM; EC50 (PC12 mHTTQ103 cells; PC-12): 1130 nM; EC50 (PC12 mHTTQ103 cells; PC-12, read-out: PC12 cells EC50): 1130 nM; inhibition of enzymatic (reductase) activity of PDI (PDI): did not inhibit PDI's reductase activity
Cc1ccc(-n2sc3ccccc3c2=O)c(Br)c1 [LC-36] | 15 | – | – | – | – | – | – | – | – | – | Kd ([1]; read-out: KD2): 25 nM; inhibition of enzymatic (reductase) activity of PDI (PDI): did not inhibit PDI's reductase activity; Solubility ([2]; Tables 5-13, solvent not given (DMSO in Table 1)): 100 mM (≈ 32 mg/mL)
O=C(C1CC1)N1CCN(Cn2sc3ncccc3c2=O)CC1 [LC-46] | 39 | 39.23 | 9.6 | 2830 | 2830 | 50 (≈ 15.9 mg/mL) | – | – | – | – | Kd ([1]; ITC assay, read-out: KD): 10 nM; Solubility (physchem; DMSO): 50 mM (≈ 15.9 mg/mL)
Cc1cc(C)c2c(=O)[nH]sc2n1 [LC-50] | 65 | 65.19 | 3830 | 5180 | 5180 | 100 (≈ 18 mg/mL) | 3830 | 100 | – | – | toxicity in PC12 cell culture assay [3]: complete loss of toxicity
Cc1nnc2sn(CN3CCN(C(=O)C4CC4)CC3)c(=O)c2c1C [LC-59] | 59 | 59.20 | 8.2 | 10600 | 10600 | 100 (≈ 34.7 mg/mL) | 8 | 100 | – | – | –
Cc1ccc2c(=O)n(CN3CCN(C(=O)C4CC4)CC3)sc2c1 [LC-62, 2-((4-(cyclopropanecarbonyl)piperazin-1-yl)methyl)-6-methylbenzo[d]isothiazol-3(2H)-one] | 54 | 54.31 | 662 | 1580 | 1580 | 50 (≈ 16.6 mg/mL) | 662 | – | – | – | Solubility (physchem; DMSO): 50 mM (≈ 16.6 mg/mL)
Cc1ccc2sn(CN3CCN(C(=O)C4CC4)CC3)c(=O)c2c1 [LC-63, 2-((4-(cyclopropanecarbonyl)piperazin-1-yl)methyl)-5-methylbenzo[d]isothiazol-3(2H)-one] | 66 | – | 240 | 659 | 659 | 50 (≈ 16.6 mg/mL) | 240 | – | – | – | Solubility (physchem; DMSO): 50 mM (≈ 16.6 mg/mL)
O=c1c2ccccc2sn1CN1CCC(N2CCCCC2)CC1 [LC-64, 2-([1,4′-bipiperidin]-1′-ylmethyl)benzo[d]isothiazol-3(2H)-one] | 81 | 81.43 | – | 393 | 393 | 50 (≈ 16.6 mg/mL) | 1210 | – | – | – | Kd ([1]; read-out: ITC KD): 1210 nM; Solubility (physchem; DMSO): 50 mM (≈ 16.6 mg/mL)
O=c1c2ccccc2sn1CN1CC[C@@H](O)C1 [LC-65, (R)-2-((3-hydroxypyrrolidin-1-yl)methyl)benzo[d]isothiazol-3(2H)-one] | 77 | 77.01 | 162 | 456 | 456 | 100 (≈ 25 mg/mL) | 162 | 100 | – | – | –
O=c1c2ccccc2on1Cc1ccccc1 [LC-67, 2-benzylbenzo[d]isoxazol-3(2H)-one] | – | 8.05 | – | – | – | – | – | 100 | – | – | ITC KD ([1]; N/A = not active): Not active or irreversible; PC12 cells EC50 (PC12 mHTTQ103 cells; [4]): not active
O=c1c2cccnc2sn1CN1CCN(Cn2sc3ncccc3c2=O)CC1 [LC-68, 2,2′-(piperazine-1,4-diylbis(methylene))bis(isothiazolo[5,4-b]pyridin-3(2H)-one)] | 36 | 35.78 | – | 2060 | 2060 | – | – | – | 5 (≈ 2.07 mg/mL) | 5 (≈ 2.07 mg/mL) | ITC binding ([1]; FIG. 1, PDI A1a titrated into compound in 0.8% NMP): no binding; ITC KD ([1]; N/A = not active): Not active or irreversible
O=c1c2cccc(F)c2sn1CN1CCN(Cn2sc3c(F)cccc3c2=O)CC1 [LC-69, 2,2′-(piperazine-1,4-diylbis(methylene))bis(7-fluorobenzo[d]isothiazol-3(2H)-one)] | 46 | 45.50 | 700 | 1970 | 1970 | – | 700 | – | 5 (≈ 2.24 mg/mL) | 5 (≈ 2.24 mg/mL) | Kd [1, 9]: 700 nM
Cc1cc(C)c2c(=O)n(CN3CCN(Cn4sc5nc(C)cc(C)c5c4=O)CC3)sc2n1 [LC-70, 2,2′-(piperazine-1,4-diylbis(methylene))bis(4,6-dimethylisothiazolo[5,4-b]pyridin-3(2H)-one)] | 59 | 59.18 | – | 3090 | 3090 | – | 3800 | – | 5 (≈ 2.35 mg/mL) | 5 (≈ 2.35 mg/mL) | Kd [1, 9]: 3800 nM; Kd ([1]; read-out: ITC KD): 3800 nM
Cc1nc2sn(CN3CCN(Cn4sc5nc(C)c(C)c(C)c5c4=O)CC3)c(=O)c2c(C)c1C [LC-71, 2,2′-(piperazine-1,4-diylbis(methylene))bis(4,5,6-trimethylisothiazolo[5,4-b]pyridin-3(2H)-one)] | 41 | 40.98 | – | 1020 | 1020 | – | – | – | 2.5 (≈ 1.25 mg/mL) | 2.5 (≈ 1.25 mg/mL) | –
Cc1nnc2sn(CN3CCN(Cn4sc5nnc(C)c(C)c5c4=O)CC3)c(=O)c2c1C [LC-72, 2,2′-(piperazine-1,4-diylbis(methylene))bis(4,5-dimethylisothiazolo[5,4-c]pyridazin-3(2H)-one)] | 10 | 10.26 | – | – | – | – | – | – | 1 (≈ 0.473 mg/mL) | 1 (≈ 0.473 mg/mL) | PC12 cells EC50 (PC12 mHTTQ103 cells; [4]): Not Active
O=c1c2cccnc2sn1CO [LC-73, 2-(hydroxymethyl)isothiazolo[5,4-b]pyridin-3(2H)-one] | 63 | 63.16 | – | 2480 | 2480 | 100 (≈ 18.2 mg/mL) | – | 100 | – | – | Kd ([1]; FIG. 1, PDI A1a titrated into compound in DMSO, read-out: Kd): 9.8 nM; Kd ([1]; ITC assay, read-out: KD): 10 nM
